Results reported in PubChem BioAssay (NCI).
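96-well plates; 48 h exposure; 5 concentrations. Endpoints by linear interpolation between flanking doses. Not reached: highest tested concentration assigned. The concentration for full growth arrest is given as TGI.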

Assays:
Assay in all cases: growth of human tumour cells (NCI), 48 h
[1] = test system: 786-0 renal
[2] = test system: A498 renal
[3] = test system: A549 NSCLC
[4] = test system: ACHN renal
[5] = test system: BT-549 breast
[6] = test system: CAKI-1 renal
[7] = test system: CCRF-CEM leukemia
[8] = test system: COLO 205 colon
[9] = test system: DU-145 prostate
[10] = test system: EKVX NSCLC
[11] = test system: HCC-2998 colon
[12] = test system: HCT-116 colon
[13] = test system: HCT-15 colon
[14] = test system: HL-60(TB) leukemia
[15] = test system: HOP-62 NSCLC
[16] = test system: HOP-92 NSCLC
[17] = test system: HS 578T breast
[18] = test system: HT29 colon
[19] = test system: IGROV1 ovarian
[20] = test system: K-562 leukemia
[21] = test system: KM12 colon
[22] = test system: LOX IMVI melanoma
[23] = test system: M14 melanoma
[24] = test system: MALME-3M melanoma
[25] = test system: MCF7 breast
[26] = test system: MDA-MB-231 breast
[27] = test system: MDA-MB-435
[28] = test system: MDA-N
[29] = test system: MOLT-4 leukemia
[30] = test system: NCI-H23 lung
[31] = test system: NCI-H460 lung
[32] = test system: NCI-H522 lung
[33] = test system: NCI/ADR-RES ovarian
[34] = test system: OVCAR-3 ovarian
[35] = test system: OVCAR-4 ovarian
[36] = test system: OVCAR-5 ovarian
[37] = test system: OVCAR-8 ovarian
[38] = test system: PC-3 prostate
[39] = test system: RPMI-8226 leukemia
[40] = test system: RXF 393 renal
[41] = test system: SF-268 CNS
[42] = test system: SF-295 CNS
[43] = test system: SF-539 CNS
[44] = test system: SK-MEL-2 melanoma
[45] = test system: SK-MEL-28 melanoma
[46] = test system: SK-MEL-5 melanoma
[47] = test system: SK-OV-3 ovarian
[48] = test system: SN12C renal
[49] = test system: SNB-19 CNS
[50] = test system: SNB-75 CNS
[51] = test system: SR leukemia
[52] = test system: SW-620 colon
[53] = test system: T-47D breast
[54] = test system: TK-10 renal
[55] = test system: U251 CNS
[56] = test system: UACC-257 melanoma
[57] = test system: UACC-62 melanoma
[58] = test system: UO-31 renal

Compound CC12CC3OC(=O)C1COC14OC5(C2C1=O)C(O)(CCC1C4CC2OC24CC=CC(=O)C14C)C(=O)OC35C (stereo not drawn) has a TGI [1] of 28.7 µM, a TGI [2] of 43.3 µM and a TGI [3] greater than 100 µM. It also gave a TGI [4] of 30.8 µM, a TGI [5] of 9.66 µM and a TGI [6] of 25.8 µM. It also gave a TGI [7] of 24.1 µM, a TGI [8] of 22.1 µM and a TGI [9] of 27.7 µM. For the same compound, the TGI [10] was greater than 100 µM, the TGI [11] was 32.8 µM and the TGI [12] was 29.2 µM. It also gave a TGI [13] of 37.7 µM, a TGI [14] of 28.7 µM and a TGI [15] of 39.4 µM. It also gave a TGI [16] of 68.1 µM, a TGI [17] greater than 100 µM and a TGI [18] greater than 100 µM. For the same compound, the TGI [19] was 42.8 µM, the TGI [20] was greater than 100 µM and the TGI [21] was 36.5 µM. The TGI [22] was 29.5 µM, the TGI [23] was 44 µM and the TGI [24] was 52.8 µM. The TGI [25] was 40.9 µM, the TGI [26] was 37 µM and the TGI [27] was 32.9 µM. The TGI [28] was 29.4 µM, the TGI [29] was 66.9 µM and the TGI [30] was 33.1 µM. For the same compound, the TGI [31] was greater than 100 µM, the TGI [32] was 19.8 µM and the TGI [33] was greater than 100 µM. The TGI [34] was 28.7 µM, the TGI [35] was greater than 100 µM and the TGI [36] was 34.9 µM. It also gave a TGI [37] greater than 100 µM, a TGI [38] of 40.1 µM and a TGI [39] of 71.4 µM. It also gave a TGI [40] of 13.4 µM, a TGI [41] greater than 100 µM and a TGI [42] of 69.5 µM. For the same compound, the TGI [43] was 28.4 µM, the TGI [44] was 28.1 µM and the TGI [45] was 24.7 µM. It also gave a TGI [46] of 11.5 µM, a TGI [47] greater than 100 µM and a TGI [48] of 60.1 µM. For the same compound, the TGI [49] was 44.9 µM, the TGI [50] was greater than 100 µM and the TGI [51] was 48.3 µM. The TGI [52] was 34.5 µM, the TGI [53] was 37.3 µM and the TGI [54] was 30.8 µM. The TGI [55] was 35.9 µM, the TGI [56] was 39.4 µM and the TGI [57] was 27.6 µM. For the same compound, the TGI [58] was 31.1 µM.
